Assay results as given in US8969363B2, “Heterocyclic compounds and uses thereof” (Infinity Pharmaceuticals, Inc., priority 2011, dated 2015).
Read-outs that look alike come from different tables or passages of the source.

How the values were obtained:
Balb/c splenic B cells = test: B cell activation and proliferation assay (Alamar Blue); format: cell-based; settings: Mus musculus
Procedure: The ability of one or more subject compounds to inhibit B cell activation and proliferation is determined according to standard procedures known in the art. For example, an in vitro cellular proliferation assay is established that measures the metabolic activity of live cells. The assay is performed in a 96 well microtiter plate using Alamar Blue reduction. Balb/c splenic B cells are purified over a Ficoll-Paque™ PLUS gradient followed by magnetic cell separation using a MACS B cell Isolation Kit (Miletenyi). Cells are plated in 90 μl at 50,000 cells/well in B Cell Media (RPMI+10% FBS+Penn/Strep+50 μM bME+5 mM HEPES). A compound provided herein is diluted in B Cell Media and added in a 10 μl volume. Plates are incubated for 30 min at 37° C. and 5% CO2 (0.2% DMSO final concentration). A 50 μl B cell stimulation cocktail is then added containing either 10 μg/ml LPS or 5 μg/ml F(ab′)2 Donkey anti-mouse […] plus 2 ng/ml recombinant mouse IL4 in B Cell Media. Plates are incubated for 72 hours at 37° C. and 5% CO2. A volume of 15 μL of Alamar Blue reagent is added to each well and plates are incubated for 5 hours at 37° C. and 5% CO2. Alamar Blue fluoresce is read at 560Ex/590Em, and IC50 or EC50 values are calculated using GraphPad Prism 5.

PI3Kβ = test: PI3 Kinase HTRF assay, PI3Kβ; format: biochemical, human; settings: 10 μM PIP2, 10 μM ATP, read-out: PI3K β IC50
Sequence of PI3Kβ (Q8BTI9 whole entry, the tested form may be a part): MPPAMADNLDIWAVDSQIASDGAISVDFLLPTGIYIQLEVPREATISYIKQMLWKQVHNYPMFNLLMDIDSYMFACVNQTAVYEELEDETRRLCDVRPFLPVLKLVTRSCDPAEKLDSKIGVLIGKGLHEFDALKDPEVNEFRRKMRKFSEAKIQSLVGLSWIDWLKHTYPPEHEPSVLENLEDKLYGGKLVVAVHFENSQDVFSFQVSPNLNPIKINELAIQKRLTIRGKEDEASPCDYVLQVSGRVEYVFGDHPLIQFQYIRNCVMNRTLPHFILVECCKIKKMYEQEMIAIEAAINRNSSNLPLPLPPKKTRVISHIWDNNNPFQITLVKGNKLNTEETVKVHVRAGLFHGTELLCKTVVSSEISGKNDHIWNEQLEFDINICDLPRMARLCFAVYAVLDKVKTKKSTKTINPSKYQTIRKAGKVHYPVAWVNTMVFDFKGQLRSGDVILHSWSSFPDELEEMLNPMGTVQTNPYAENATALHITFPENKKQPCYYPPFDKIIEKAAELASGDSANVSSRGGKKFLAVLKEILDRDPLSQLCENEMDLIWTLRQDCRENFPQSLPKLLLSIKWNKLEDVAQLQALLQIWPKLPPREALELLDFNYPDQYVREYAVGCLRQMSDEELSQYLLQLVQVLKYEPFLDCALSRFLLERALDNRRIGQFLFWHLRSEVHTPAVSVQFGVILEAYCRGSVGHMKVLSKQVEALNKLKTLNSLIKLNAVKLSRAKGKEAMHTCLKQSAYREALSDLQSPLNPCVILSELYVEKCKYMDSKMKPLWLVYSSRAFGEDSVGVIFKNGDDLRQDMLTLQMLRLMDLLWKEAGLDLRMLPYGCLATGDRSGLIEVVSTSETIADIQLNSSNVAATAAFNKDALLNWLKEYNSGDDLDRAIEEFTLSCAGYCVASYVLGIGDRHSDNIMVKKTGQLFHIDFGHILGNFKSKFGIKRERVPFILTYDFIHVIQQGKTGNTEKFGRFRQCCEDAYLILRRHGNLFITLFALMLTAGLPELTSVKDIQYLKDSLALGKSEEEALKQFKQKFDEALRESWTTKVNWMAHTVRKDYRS
Text: A PI3-Kinase HTRF® assay kit (cat No. 33-016) purchased from Millipore Corporation was used to screen compounds provided herein. This assay used specific, high affinity binding of the GRP1 pleckstrin homology (PH) domain to PIP3, the product of a Class 1A or 1B PI3 Kinase acting on its physiological substrate PIP2. During the detection phase of the assay, a complex was generated between the GST-tagged PH domain and biotinylated short chain PIP3. The biotinylated PIP3 and the GST-tagged PH domain recruited fluorophores (Streptavidin-Allophycocyanin and Europium-labeled anti-GST respectively) to form the fluorescence resonance energy transfer (FRET) architecture, generating a stable time-resolved FRET signal. The FRET complex was disrupted in a competitive manner by non-biotinylated PIP3, a product formed in the PI3 Kinase assay.
PI3 Kinase α, β, γ and δ activity was assayed using the PI3 Kinase HTRF® assay kit (catalogue No. 33-016) purchased from Millipore Corporation. […] Purified recombinant PI3K enzyme was used to catalyze the phosphorylation of phosphatidylinositol 4,5-bisphosphate (PIP2 at 10 μM) to phosphatidylinositol 3,4,5-trisphosphate (PIP3) in the presence of 10 μM ATP. The assay was carried out in 384-well format and detected using a Perkin Elmer EnVision Xcite Multilabel Reader. Emission ratios were converted into percent inhibitions and imported into GraphPad Prism software. […] IC50 values were determined using a nonlinear regression model available in GraphPad Prism 5. […]

[1] = 'Greater than 10 μM' and 'Greater than 1 μM to 10 μM'

Row | SMILES | EC50 (Balb/c splenic B cells; 'Less than 100 nM') | IC50 (PI3Kβ; [1]) | also measured
1 | C[C@H](Nc1ncnc2cccnc12)c1cc2ccc(F)c(Cl)c2c(=O)n1-c1ccccc1 [Compound I-16] | < 0.1 µM | – | –
2 | C[C@H](Nc1ncnc2cccnc12)c1cc2cccc(Cl)c2c(=O)n1-c1cccc(F)c1 [Compound I-20] | < 0.1 µM | – | –
3 | C[C@H](Nc1ncnc2cccnc12)c1cc2cccc(Cl)c2c(=O)n1C1CC1 [Compound I-23] | < 0.1 µM | – | IC50 (PI3Kβ; 'Less than 100 nM'): < 0.1 µM
4 | C[C@H](Nc1ncnc2cccnc12)c1cc2cccc(Cl)c2c(=O)n1CCN1CCCC1 [Compound I-33] | < 0.1 µM | – | –
5 | C[C@H](Nc1nc(Cl)nc2cccnc12)c1cc2cccc(-c3cnn(C)c3)c2c(=O)n1-c1ccccc1 [Compound I-35] | – | > 10 µM | –
6 | C[C@H](Nc1nc(Cl)nc2cccnc12)c1cc2cccc(-c3cnn(C)c3)c2c(=O)n1-c1cccc(F)c1 [Compound I-37] | – | > 10 µM | –
7 | C[C@H](Nc1nc(Cl)nc2cccnc12)c1cc2cccc(-c3cnn(C)c3)c2c(=O)n1C1CC1 [Compound I-39] | – | > 10 µM | –
8 | C[C@H](Nc1nc(N)nc2cccnc12)c1cc2cccc(-c3cnn(C)c3)c2c(=O)n1C1CC1 [Compound I-40] | < 0.1 µM | 1 to 10 µM | –
9 | Cc1ncc(-c2cccc3cc([C@H](C)Nc4ncnc5cccnc45)n(-c4ccccc4)c(=O)c23)cn1 [Compound I-41] | < 0.1 µM | > 10 µM | –
10 | COc1ncc(-c2cccc3cc([C@H](C)Nc4ncnc5cccnc45)n(-c4ccccc4)c(=O)c23)cn1 [Compound I-42] | < 0.1 µM | > 10 µM | –
11 | COc1cncc(-c2cccc3cc([C@H](C)Nc4ncnc5cccnc45)n(-c4ccccc4)c(=O)c23)c1 [Compound I-45] | – | > 10 µM | –
12 | COc1ncc(-c2cccc3cc([C@H](C)Nc4nc(N)nc5cccnc45)n(-c4ccccc4)c(=O)c23)cn1 [Compound I-57] | < 0.1 µM | > 10 µM | –
13 | COc1cncc(-c2cccc3cc([C@H](C)Nc4nc(N)nc5cccnc45)n(-c4ccccc4)c(=O)c23)c1 [Compound I-58] | < 0.1 µM | 1 to 10 µM | –
14 | Cc1ncc(-c2cccc3cc([C@H](C)Nc4nc(N)nc5cccnc45)n(-c4ccccc4)c(=O)c23)cn1 [Compound I-59] | < 0.1 µM | > 10 µM | –
15 | C[C@H](Nc1ncnc2cccnc12)c1cc2cccc(C(=O)O)c2c(=O)n1-c1ccccc1 [Compound I-62] | – | > 10 µM | –
16 | C[C@H](Nc1ncnc2cccnc12)c1cc2cccc(-c3cnc(N)nc3)c2c(=O)n1-c1ccccc1 [Compound I-63] | < 0.1 µM | 1 to 10 µM | –
17 | Cc1ccnc2cc(C(C)Nc3ncnc4cccnc34)n(-c3ccccc3)c(=O)c12 (centres unmarked) [Compound I-65] | – | 1 to 10 µM | –
18 | COc1nc(N[C@@H](C)c2cc3cccc(Cl)c3c(=O)n2-c2ccccc2)c2ncccc2n1 [Compound I-71] | – | > 10 µM | –
19 | COc1ncc(-c2cccc3cc([C@H](C)Nc4nc(OC)nc5cccnc45)n(-c4ccccc4)c(=O)c23)cn1 [Compound I-72] | – | > 10 µM | –
20 | Cc1cncc(-c2cccc3cc([C@H](C)Nc4nc(N)nc5cccnc45)n(-c4ccccc4)c(=O)c23)c1 [Compound I-75] | < 0.1 µM | 1 to 10 µM | –
21 | Cc1cc(-c2cccc3cc([C@H](C)Nc4ncnc5cccnc45)n(-c4ccccc4)c(=O)c23)ccn1 [Compound I-76] | < 0.1 µM | 1 to 10 µM | –
22 | COc1ncc(-c2cccc3cc([C@H](C)Nc4nc(O)nc5cccnc45)n(-c4ccccc4)c(=O)c23)cn1 [Compound I-77] | – | > 10 µM | –
23 | COc1ncc(-c2cccc3cc([C@H](C)Nc4nc(N)nc5cccnc45)n(-c4cccc(F)c4)c(=O)c23)cn1 [Compound I-78] | < 0.1 µM | > 10 µM | –
24 | Cc1cc(-c2cccc3cc([C@H](C)Nc4nc(N)nc5cccnc45)n(-c4ccccc4)c(=O)c23)ccn1 [Compound I-81] | < 0.1 µM | 1 to 10 µM | –
25 | C[C@H](Nc1nc(N)nc2cccnc12)c1cc2cccc(-c3cnc4ccccc4c3)c2c(=O)n1-c1ccccc1 [Compound I-82] | < 0.1 µM | 1 to 10 µM | –
26 | C[C@H](Nc1nc(N)nc2cccnc12)c1cc2cccc(-c3cnc4[nH]ccc4c3)c2c(=O)n1-c1ccccc1 [Compound I-83] | < 0.1 µM | – | –
27 | Cc1cccc2cc([C@H](C)Nc3nc(N)nc4cccnc34)n(-c3cccc(F)c3)c(=O)c12 [Compound I-85] | < 0.1 µM | 1 to 10 µM | –
28 | Cc1cc(-c2cccc3nc([C@H](C)Nc4nc(N)nc5cccnc45)n(-c4ccccc4)c(=O)c23)ccn1 [Compound I-88] | < 0.1 µM | 1 to 10 µM | –

Row | SMILES | EC50 (Balb/c splenic B cells; 'Less than 100 nM') | IC50 (PI3Kβ; [1]) | also measured
29 | C[C@H](Nc1nc(N)nc2cccnc12)c1cc2cccc(Cl)c2c(=O)n1-c1ccccc1 [Compound I-92] | – | – | IC50 (PI3Kβ; 'Less than 100 nM'): < 0.1 µM
30 | COc1ccc(CNc2nc(N[C@@H](C)c3cc4cccc(-c5cnc(OC)nc5)c4c(=O)n3-c3ccccc3)c3ncccc3n2)cc1 [Compound I-93] | – | 1 to 10 µM | –
31 | Cc1ncc(-c2cccc3cc([C@H](C)Nc4nc(N)nc5cccnc45)n(-c4ccccc4)c(=O)c23)s1 [Compound I-94] | – | 1 to 10 µM | –
32 | CNc1nc(N[C@@H](C)c2cc3cccc(NC)c3c(=O)n2-c2ccccc2)c2ncccc2n1 [Compound I-95] | – | > 10 µM | EC50 (Balb/c splenic B cells; 1 μM to 100 nM): 0.1 to 1 µM
33 | CNc1nc(N[C@@H](C)c2cc3cccc(-c4cnc(OC)nc4)c3c(=O)n2-c2ccccc2)c2ncccc2n1 [Compound I-97] | < 0.1 µM | > 10 µM | –
34 | CNc1nc(N[C@@H](C)c2cc3cccc(-c4cnc(C)nc4)c3c(=O)n2-c2ccccc2)c2ncccc2n1 [Compound I-98] | – | > 10 µM | EC50 (Balb/c splenic B cells; 1 μM to 100 nM): 0.1 to 1 µM
35 | CNc1cccc2cc([C@H](C)Nc3nc(N)nc4cccnc34)n(-c3ccccc3)c(=O)c12 [Compound I-101] | < 0.1 µM | > 10 µM | –
36 | C[C@H](Nc1cc(Cl)nn2ccnc12)c1cc2cccc(-c3cnn(C)c3)c2c(=O)n1-c1cccc(F)c1 [II-16] | – | > 10 µM | –
37 | C[C@H](Nc1ccnc2ccnn12)c1cc2scc(-c3cnn(C)c3)c2c(=O)n1-c1ccccc1 [II-21] | – | > 10 µM | –
38 | C[C@H](Nc1ccnn2ccnc12)c1cc2scc(-c3cnn(C)c3)c2c(=O)n1-c1ccccc1 [II-23] | – | > 10 µM | –
39 | COc1ncc(-c2cccc3cc([C@H](C)Nc4ccnc5ccnn45)n(-c4ccccc4)c(=O)c23)cn1 [II-47] | – | > 10 µM | –
40 | C[C@H](Nc1ncnc2ccnn12)c1cc2cccc(C(F)(F)F)c2c(=O)n1-c1ccccc1 [III-21] | – | 1 to 10 µM | –
41 | C[C@H](Nc1nc(Cl)nc2scnc12)c1cc2cccc(C(F)(F)F)c2c(=O)n1-c1ccccc1 [III-24] | – | 1 to 10 µM | –
42 | C[C@H](Nc1nc(N)ncc1C(F)(F)F)c1cc2cccc(C(F)(F)F)c2c(=O)n1-c1ccccc1 [III-32] | – | 1 to 10 µM | –
43 | C[C@H](Nc1nc(O)nc2cccnc12)c1cc2cccc(C(F)(F)F)c2c(=O)n1-c1cccc(F)c1 [III-47] | – | > 10 µM | –
44 | C[C@H](Nc1nc(O)nc2[nH]cnc12)c1cc2cccc(C(F)(F)F)c2c(=O)n1-c1cccc(F)c1 [III-48] | – | > 10 µM | –
45 | C[C@H](Nc1nccc2nccn12)c1cc2cccc(Cl)c2c(=O)n1-c1ccccc1 [IV-4] | – | > 10 µM | –
46 | C[C@H](Nc1ncnc2cnccc12)c1cc2cccc(Cl)c2c(=O)n1-c1ccccc1 [IV-5] | – | > 10 µM | –
47 | C[C@H](Nc1ccn2nccc2n1)c1cc2cccc(Cl)c2c(=O)n1-c1ccccc1 [IV-6] | – | > 10 µM | –
48 | C[C@H](NCc1cccnc1N)c1cc2cccc(Cl)c2c(=O)n1-c1ccccc1 [IV-8] | – | > 10 µM | –
49 | C[C@H](Nc1ncc(C(F)(F)F)c(N)n1)c1cc2cccc(Cl)c2c(CCN2CCOCC2)n1 [IV-10] | – | > 10 µM | –
50 | C[C@H](Nc1cc(Cl)ncc1C(N)=O)c1cc2cccc(Cl)c2c(=O)n1-c1ccccc1 [IV-21] | – | > 10 µM | –
51 | C[C@H](Nc1cc(Cl)ncc1C#N)c1cc2cccc(Cl)c2c(=O)n1-c1ccccc1 [IV-23] | – | > 10 µM | –
52 | C[C@H](Nc1cc(N)ncc1C(N)=O)c1cc2cccc(Cl)c2c(=O)n1-c1ccccc1 [IV-24] | – | – | IC50 (PI3Kβ; 'Less than 100 nM'): < 0.1 µM
53 | CCOC(=O)c1cnc(N[C@@H](C)c2cc3cccc(-c4ccnc(OC)c4)c3c(=O)n2-c2ccccc2)nc1N [IV-25] | – | > 10 µM | –
54 | C[C@@H](c1cc2cccc(Cl)c2c(=O)n1-c1ccccc1)n1c(=O)[nH]c2cnc(N)nc21 [IV-26] | – | > 10 µM | –
55 | C[C@H](Nc1nc(Cl)ns1)c1cc2cccc(Cl)c2c(=O)n1-c1ccccc1 [IV-27] | – | > 10 µM | –
